Data on 9 compounds can be found in ChEMBL document CHEMBL1201862, “PubChem BioAssay data set” (2004).

Test systems include U-251; SN12C; K562; NCI-H23; SNB-19; HOP-92; SK-MEL-2; MOLT-4; OVCAR-5; OVCAR-4; NCI-H460; Malme-3M; 786-0; SK-MEL-5; RXF 393; SF-295; EKVX.
Holding throughout (experiment): growth of human tumour cells (NCI), 48 h

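These data come from cells grown in 96-well plates and exposed to compound for 48 hours at five concentrations. GI50 marks 50% less growth.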 Calls of active or inactive are those of the source. No stated cut-off is given here; in the data, active = GI50 up to about 1.1 µM and inactive = higher.

In the case of `CCOC(=O)C1C(=O)c2cccc(OC)c2C2COC(=O)N12` (stereo not drawn), the GI50 with U-251, in the experiment on SN12C, with K562, in the experiment with NCI-H23, in the experiment on SNB-19 and in the experiment with HOP-92 was > 100 µM (inactive) each time. Further, the GI50 in the experiment on SK-MEL-2, in the experiment on MOLT-4, with OVCAR-5, in the experiment on OVCAR-4, in the experiment with NCI-H460 and with Malme-3M was > 100 µM (inactive) throughout. Further, the GI50 in the experiment with 786-0, in the experiment with SK-MEL-5, with RXF 393, in the experiment with SF-295 and with EKVX was > 100 µM (inactive) each time.

On to `CC1/C=C/[C@@]2(C)CCC(C(C)(C)O)C2C(O)C[C@](C)(O)/C=C/C1` (stereo partly drawn), for which the GI50 in the experiment on U-251 was > 100 µM (inactive); in the experiment on SN12C it was > 100 µM (inactive); in the experiment on K562 it was 65.9 µM (inactive); in the experiment on NCI-H23, > 100 µM (inactive); in the experiment with SNB-19, > 100 µM (inactive); in the experiment with HOP-92, > 100 µM (inactive). Also, the GI50 in the experiment on SK-MEL-2, in the experiment on MOLT-4, in the experiment on OVCAR-5, with OVCAR-4, in the experiment with NCI-H460 and with Malme-3M was > 100 µM (inactive) throughout. The GI50 with 786-0 was 21.7 µM (inactive); in the experiment on SK-MEL-5, > 100 µM (inactive); in the experiment with RXF 393 it was > 100 µM (inactive); in the experiment with SF-295 it was > 100 µM (inactive); in the experiment with EKVX, > 100 µM (inactive).

As to `[O-][n+]1c2cc(CBr)c(CBr)cc2[n+]([O-])c2c(O)cccc21`, the GI50 in the experiment with U-251 is 2.9 µM (inactive); in the experiment with SN12C, 1.73 µM (inactive); in the experiment on K562, 1.22 µM (inactive); in the experiment with NCI-H23 it was 2.72 µM (inactive); with SNB-19 it was 5.26 µM (inactive); with HOP-92, 1.05 µM (active). Moreover, the GI50 in the experiment on SK-MEL-2 is 2.22 µM (inactive); in the experiment with MOLT-4, 0.344 µM (active); in the experiment with OVCAR-5, 1.95 µM (inactive); in the experiment on OVCAR-4, 1.8 µM (inactive); with NCI-H460 it was 1.91 µM (inactive); in the experiment with Malme-3M, 1.91 µM (inactive). The GI50 with 786-0 was 1.58 µM (inactive); with SK-MEL-5, 2.1 µM (inactive); in the experiment on RXF 393, 1.76 µM (inactive); in the experiment on SF-295, 1.84 µM (inactive); in the experiment with EKVX it was 6.05 µM (inactive).

For the compound `CC1(C(=O)O)CCC[C@@]2(C)C1CC[C@@]1(C)c3cocc3CCC21` (stereo partly drawn), the GI50 was 97.7 µM (inactive) in the experiment with U-251; > 100 µM (inactive) in the experiment with SN12C; 40.9 µM (inactive) with K562; > 100 µM (inactive) in the experiment on NCI-H23; > 100 µM (inactive) with SNB-19; > 100 µM (inactive) with HOP-92. Besides, the GI50 in the experiment on SK-MEL-2, in the experiment on MOLT-4, in the experiment with OVCAR-5, in the experiment on OVCAR-4, with NCI-H460 and in the experiment with Malme-3M was > 100 µM (inactive) each time. The GI50 in the experiment with 786-0 is 83.6 µM (inactive); in the experiment with SK-MEL-5, > 100 µM (inactive); in the experiment on RXF 393 it was > 100 µM (inactive); with SF-295, > 100 µM (inactive); in the experiment on EKVX, > 100 µM (inactive).

As for `COc1ccccc1/C=C(\NC(=O)c1ccccc1)c1nc2ccc(Cl)cc2[nH]1`, the GI50 with U-251 is 30.5 µM (inactive); in the experiment with SN12C it was 35.2 µM (inactive); in the experiment with K562, 27.4 µM (inactive); in the experiment with NCI-H23, 22.2 µM (inactive); in the experiment with SNB-19, 29.5 µM (inactive); in the experiment with HOP-92, 22.7 µM (inactive). For the same compound, the GI50 was 25.6 µM (inactive) with SK-MEL-2; 15.2 µM (inactive) in the experiment on MOLT-4; 38 µM (inactive) with OVCAR-5; 22.9 µM (inactive) in the experiment with OVCAR-4; 33.8 µM (inactive) with NCI-H460; 47.8 µM (inactive) in the experiment with Malme-3M. In addition, the GI50 in the experiment on 786-0 is 27.4 µM (inactive); in the experiment with SK-MEL-5, 17.3 µM (inactive); in the experiment with RXF 393, 22.4 µM (inactive); in the experiment on EKVX it was 29.5 µM (inactive).

Regarding `Nc1nc[n+](Cc2ccccc2)c2ncn(Cc3ccccc3)c12`, the GI50 was 45.7 µM (inactive) with U-251; > 100 µM (inactive) in the experiment on SN12C; 37.7 µM (inactive) with K562; 97.7 µM (inactive) in the experiment on NCI-H23; > 100 µM (inactive) in the experiment with SNB-19; 19.2 µM (inactive) in the experiment on HOP-92. The GI50 was > 100 µM (inactive) with SK-MEL-2; > 100 µM (inactive) in the experiment on OVCAR-5; > 100 µM (inactive) with OVCAR-4; > 100 µM (inactive) in the experiment with NCI-H460; 84.3 µM (inactive) with Malme-3M; > 100 µM (inactive) in the experiment with 786-0. Further, the GI50 is 97.5 µM (inactive) in the experiment with SK-MEL-5, 20.2 µM (inactive) in the experiment on RXF 393, 63.8 µM (inactive) in the experiment with SF-295 and > 100 µM (inactive) in the experiment with EKVX.

On to `O=[N+]([O-])c1ccc(C2CC(c3ccccc3Cl)=Nc3ccccc3S2)cc1` (stereo not drawn), for which the GI50 with U-251 was 5.27 µM (inactive); in the experiment with SN12C it was 4.02 µM (inactive); in the experiment with K562 it was 1.75 µM (inactive); in the experiment with NCI-H23, 6.15 µM (inactive); with SNB-19 it was 4.3 µM (inactive); with HOP-92, 6 µM (inactive). In addition, the GI50 was 11.7 µM (inactive) in the experiment with SK-MEL-2; 1.56 µM (inactive) in the experiment with MOLT-4; 12.9 µM (inactive) with OVCAR-5; 9.84 µM (inactive) with OVCAR-4; 6.85 µM (inactive) in the experiment on NCI-H460; 10.9 µM (inactive) with Malme-3M. The GI50 in the experiment with 786-0 was 3.69 µM (inactive); in the experiment with SK-MEL-5, 3.95 µM (inactive); in the experiment on RXF 393, 3.26 µM (inactive); with SF-295, 7.5 µM (inactive); in the experiment with EKVX, 14.5 µM (inactive).

As for `CCOc1ccccc1NC(=O)C(=O)C(C(=O)c1ccc2ccccc2c1)C1OC(=O)c2ccccc21` (stereo not drawn), the GI50 in the experiment on U-251 was 6.64 µM (inactive); with SN12C it was 15.5 µM (inactive); with K562, 17.1 µM (inactive); in the experiment on NCI-H23 it was 7.64 µM (inactive); with SNB-19, 4.53 µM (inactive); with HOP-92, 10.5 µM (inactive). Also, the GI50 in the experiment with SK-MEL-2 is 13.2 µM (inactive); in the experiment with MOLT-4 it was 3.37 µM (inactive); in the experiment with OVCAR-5, 21.2 µM (inactive); in the experiment on OVCAR-4 it was 4.61 µM (inactive); with NCI-H460, 6.68 µM (inactive); with Malme-3M, 14.3 µM (inactive). Moreover, the GI50 is 7.78 µM (inactive) in the experiment on 786-0, 10.6 µM (inactive) in the experiment with SK-MEL-5, 2.26 µM (inactive) in the experiment on RXF 393 and 22.2 µM (inactive) with EKVX.

As to `C=C(Br)C(C)(Br)CCC(Br)C(C)(C)Br` (stereo not drawn), the GI50 with U-251 is 17.1 µM (inactive); in the experiment with SN12C, 21.6 µM (inactive); with K562, 21.4 µM (inactive); in the experiment on NCI-H23, 36.4 µM (inactive); in the experiment on HOP-92, 18.6 µM (inactive); in the experiment on SK-MEL-2, 24.5 µM (inactive). Besides, the GI50 in the experiment with MOLT-4 is 24.3 µM (inactive); with OVCAR-5, 35.5 µM (inactive); in the experiment on OVCAR-4, 39.4 µM (inactive); in the experiment on NCI-H460, 33.7 µM (inactive); in the experiment with Malme-3M, 28.1 µM (inactive); with 786-0, 22.5 µM (inactive). Further, the GI50 was 33.5 µM (inactive) with SK-MEL-5, 46.6 µM (inactive) in the experiment with RXF 393 and 26.5 µM (inactive) in the experiment on SF-295.
